Experimental data: US20040176431A1, “Antiproliferative 2-(sulfo-phenyl)-aminothiazole derivatives and pharmaceutical compositions, and methods for their use” (Pfizer, Inc., priority 2003, published 2004)

Target: T1, CDK4/cyclin D3 (Homo sapiens, UniProt P11802)
T1 construct: made in house; host or cells: insect cells (baculovirus co-infection)
Assay: Inhibition of CDK4/Cyclin D retinoblastoma kinase activity;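 for % Inhib CDK4/D @ 1 μM: relative to DMSO control wells without compound minus no-enzyme background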
Assay type: biochemical
Settings: for inhibition at 0.1 µM / % Inhib CDK4/D @ 0.1 μM: test compound at 0.1 μM; for inhibition at 0.1 µM: read-out: % Inhib CDK4/D @ 0.1 μM; for inhibition at 1 µM / % Inhib CDK4/D @ 1 μM: test compound at 1 μM (head line shifted: 'mM' printed beside 'Structure'); for inhibition at 1 µM: read-out: % Inhib CDK4/D @ 1 μM; for inhibition at 0.03 µM / % Inhib CDK4/D @ 0.03: test compound at 0.03 (unit cell empty, head line shifted; μM); for inhibition at 0.03 µM: read-out: % Inhib CDK4/D @ 0.03
Procedure, shortened: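 Human CDK4 with truncated cyclin D3 (1-264) from baculovirus-infected insect cells, 5 nM, phosphorylating His-tagged Rb fragment (386-928) with 25 μM [32P/33P]ATP in pH 7.4 HEPES/MgCl2, 2% DMSO, 30° C., 20 min (60 min for tight binders). Filter capture, phosphorimager; apparent Ki from competitive or tight-binding competitive fits.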

T1 sequence (P11802 whole entry): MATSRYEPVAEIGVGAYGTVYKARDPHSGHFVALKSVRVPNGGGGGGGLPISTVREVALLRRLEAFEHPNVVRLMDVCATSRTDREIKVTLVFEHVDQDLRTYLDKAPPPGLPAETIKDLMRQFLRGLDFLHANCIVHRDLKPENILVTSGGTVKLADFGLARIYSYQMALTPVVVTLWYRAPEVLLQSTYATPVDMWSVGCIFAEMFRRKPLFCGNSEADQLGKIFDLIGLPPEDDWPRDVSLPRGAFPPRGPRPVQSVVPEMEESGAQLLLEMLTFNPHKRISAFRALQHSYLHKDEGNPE
T1 sequence (P30281 1-264 partner limits assumed): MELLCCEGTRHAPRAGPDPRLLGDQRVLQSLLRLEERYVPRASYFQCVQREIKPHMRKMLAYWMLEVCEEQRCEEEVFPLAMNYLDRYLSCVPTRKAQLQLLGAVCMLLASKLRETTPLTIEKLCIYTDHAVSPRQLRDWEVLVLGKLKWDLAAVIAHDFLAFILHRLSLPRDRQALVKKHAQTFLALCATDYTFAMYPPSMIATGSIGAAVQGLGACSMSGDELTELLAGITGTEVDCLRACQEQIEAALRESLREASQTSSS

SMILES | inhibition at 0.1 µM [%] | inhibition at 1 µM [%] | inhibition at 0.03 µM [%] | % Inhib CDK4/D @ 0.1 μM [%] | % Inhib CDK4/D @ 1 μM [%] | % Inhib CDK4/D @ 0.03 [%]
CN1CCCC(C[S+]([O-])c2ccc(Nc3nc(N)c(C(=O)c4c(Cl)cccc4Cl)s3)cc2)C1 (stereo not drawn) [DD(107)] | 28 | 47.3 | -11 | – | – | –
NC(=O)CC[S+]([O-])c1ccc(Nc2nc(N)c(C(=O)c3c(Cl)cccc3Cl)s2)cc1 (stereo not drawn) [DD(108)] | 60 | 73.9 | 14 | – | – | –
Nc1nc(Nc2ccc([S+]([O-])CCO)cc2)sc1C(=O)c1c(Cl)cccc1Cl (stereo not drawn) [DD(109)] | – | – | – | 67 | 73.5 | 25
Nc1nc(Nc2ccc([S+]([O-])CCO)cc2)sc1C(=O)c1c(Cl)cccc1Cl (stereo not drawn) [DD(110)] | – | – | – | 27 | 28.9 | 3.7
CCOCC[S+]([O-])c1ccc(Nc2nc(N)c(C(=O)c3c(Cl)cccc3Cl)s2)cc1 (stereo not drawn) [DD(113)] | 30 | 59.4 | 1.1 | – | – | –
Nc1nc(Nc2ccc([S+]([O-])CC(O)CO)cc2)sc1C(=O)c1c(Cl)cccc1Cl (stereo not drawn) [DD(114)] | 46 | 77.9 | 16 | – | – | –
CCC(CC)C[S+]([O-])c1ccc(Nc2nc(N)c(C(=O)c3c(Cl)cccc3Cl)s2)cc1 (stereo not drawn) [DD(116)] | 15 | 26.6 | -2.9 | – | – | –
CC(C)(CO)C[S+]([O-])c1ccc(Nc2nc(N)c(C(=O)c3c(Cl)cccc3Cl)s2)cc1 (stereo not drawn) [DD(120)] | 29 | 57.1 | -34 | – | – | –
CCN(CC)C(=O)C[S+]([O-])c1cccc(Nc2nc(N)c(C(=O)c3c(Cl)cccc3Cl)s2)c1 (stereo not drawn) [DD(121)] | 41 | 59.8 | -0.5 | – | – | –
CC(CN(C)C)C[S+]([O-])c1cccc(Nc2nc(N)c(C(=O)c3c(Cl)cccc3Cl)s2)c1 (stereo not drawn) [DD(123)] | 34 | 51.2 | 8 | – | – | –
COC(=O)/C=C/C[S+]([O-])c1cccc(Nc2nc(N)c(C(=O)c3c(Cl)cccc3Cl)s2)c1 (stereo not drawn) [DD(124)] | 34 | 38.8 | 2.1 | – | – | –
Nc1nc(Nc2cccc([S+]([O-])Cc3ncon3)c2)sc1C(=O)c1c(Cl)cccc1Cl (stereo not drawn) [DD(128)] | 54 | 49.9 | 12 | – | – | –
CN(C)CCC[S+]([O-])c1cccc(Nc2nc(N)c(C(=O)c3c(Cl)cccc3Cl)s2)c1 (stereo not drawn) [DD(130)] | 41 | 56 | 12 | – | – | –
Nc1nc(Nc2cccc([S+]([O-])CCN3CCCCC3)c2)sc1C(=O)c1c(Cl)cccc1Cl (stereo not drawn) [DD(131)] | 32 | 57 | 13 | – | – | –
Nc1nc(Nc2cccc([S+]([O-])CC3CO3)c2)sc1C(=O)c1c(Cl)cccc1Cl (stereo not drawn) [DD(132)] | 64 | 62 | 44 | – | – | –
CC(C)CC[S+]([O-])c1cccc(Nc2nc(N)c(C(=O)c3c(Cl)cccc3Cl)s2)c1 (stereo not drawn) [DD(133)] | 28 | 24.3 | 14 | – | – | –
Nc1nc(Nc2cccc([S+]([O-])CC(=O)Nc3ccccc3)c2)sc1C(=O)c1c(Cl)cccc1Cl (stereo not drawn) [DD(135)] | 42 | 51.9 | 16 | – | – | –
CC1(C[S+]([O-])c2cccc(Nc3nc(N)c(C(=O)c4c(Cl)cccc4Cl)s3)c2)CO1 (stereo not drawn) [DD(140)] | 41 | 68 | 25 | – | – | –
CCOC(=O)CC[S+]([O-])c1cccc(Nc2nc(N)c(C(=O)c3c(Cl)cccc3Cl)s2)c1 (stereo not drawn) [DD(142)] | 36 | 39.3 | -2.6 | – | – | –
CC(C)OC(=O)C[S+]([O-])c1cccc(Nc2nc(N)c(C(=O)c3c(Cl)cccc3Cl)s2)c1 (stereo not drawn) [DD(143)] | 24 | 36.7 | 15 | – | – | –
CCC[S+]([O-])c1cccc(Nc2nc(N)c(C(=O)c3c(Cl)cccc3Cl)s2)c1 (stereo not drawn) [DD(145)] | 32 | 42.3 | 4.2 | – | – | –
COC(=O)C[S+]([O-])c1cccc(Nc2nc(N)c(C(=O)c3c(Cl)cccc3Cl)s2)c1 (stereo not drawn) [DD(146)] | 53 | 47.6 | 15 | – | – | –
CN1CCCC(C[S+]([O-])c2cccc(Nc3nc(N)c(C(=O)c4c(Cl)cccc4Cl)s3)c2)C1 (stereo not drawn) [DD(147)] | 38 | 39.6 | 19 | – | – | –
NC(=O)CC[S+]([O-])c1cccc(Nc2nc(N)c(C(=O)c3c(Cl)cccc3Cl)s2)c1 (stereo not drawn) [DD(148)] | 53 | 65.5 | 35 | – | – | –
Nc1nc(Nc2cccc([S+]([O-])CCO)c2)sc1C(=O)c1c(Cl)cccc1Cl (stereo not drawn) [DD(149)] | 55 | 57.7 | 33 | – | – | –
CCOCC[S+]([O-])c1cccc(Nc2nc(N)c(C(=O)c3c(Cl)cccc3Cl)s2)c1 (stereo not drawn) [DD(153)] | 44 | 51.8 | 15 | – | – | –

More lines, now with the values ahead:

inhibition at 0.1 µM [%] | inhibition at 1 µM [%] | inhibition at 0.03 µM [%] | % Inhib CDK4/D @ 0.1 μM [%] | % Inhib CDK4/D @ 1 μM [%] | % Inhib CDK4/D @ 0.03 [%] | SMILES
32 | 64.8 | -1.7 | – | – | – | CC(C)CCOC(=O)C[S+]([O-])c1ccc(Nc2nc(N)c(C(=O)c3c(Cl)cccc3Cl)s2)cc1 (stereo not drawn) [DD(111)]
27 | 63.2 | -4.9 | – | – | – | CN(C)CC[S+]([O-])c1ccc(Nc2nc(N)c(C(=O)c3c(Cl)cccc3Cl)s2)cc1 (stereo not drawn) [DD(112)]
45 | 68.5 | 6.3 | – | – | – | Nc1nc(Nc2ccc([S+]([O-])Cc3ccncc3)cc2)sc1C(=O)c1c(Cl)cccc1Cl (stereo not drawn) [DD(115)]
52 | 61.1 | 16 | – | – | – | CC(=O)OCC[S+]([O-])c1ccc(Nc2nc(N)c(C(=O)c3c(Cl)cccc3Cl)s2)cc1 (stereo not drawn) [DD(117)]
22 | 49.9 | -0.7 | – | – | – | CC(C)OC(=O)CC[S+]([O-])c1ccc(Nc2nc(N)c(C(=O)c3c(Cl)cccc3Cl)s2)cc1 (stereo not drawn) [DD(118)]
36 | 58 | 3.8 | – | – | – | Nc1nc(Nc2ccc([S+]([O-])CCN3CCOCC3)cc2)sc1C(=O)c1c(Cl)cccc1Cl (stereo not drawn) [DD(119)]
40 | 54.3 | 16 | – | – | – | Cc1noc(C)c1C[S+]([O-])c1cccc(Nc2nc(N)c(C(=O)c3c(Cl)cccc3Cl)s2)c1 (stereo not drawn) [DD(122)]
55 | 61.5 | 15 | – | – | – | Nc1nc(Nc2cccc([S+]([O-])CCCO)c2)sc1C(=O)c1c(Cl)cccc1Cl (stereo not drawn) [DD(125)]
28 | 43.1 | 7.5 | – | – | – | C=CCC[S+]([O-])c1cccc(Nc2nc(N)c(C(=O)c3c(Cl)cccc3Cl)s2)c1 (stereo not drawn) [DD(126)]
34 | 49.6 | -4.3 | – | – | – | Nc1nc(Nc2cccc([S+]([O-])CCN3CCCC3)c2)sc1C(=O)c1c(Cl)cccc1Cl (stereo not drawn) [DD(127)]
33 | 33.3 | 19 | – | – | – | Nc1nc(Nc2cccc([S+]([O-])CC3CNC(=O)O3)c2)sc1C(=O)c1c(Cl)cccc1Cl (stereo not drawn) [DD(129)]
48 | 49.9 | 8.4 | – | – | – | COCC[S+]([O-])c1cccc(Nc2nc(N)c(C(=O)c3c(Cl)cccc3Cl)s2)c1 (stereo not drawn) [DD(134)]
27 | 44.9 | 14 | – | – | – | Nc1nc(Nc2cccc([S+]([O-])CC3CC3)c2)sc1C(=O)c1c(Cl)cccc1Cl (stereo not drawn) [DD(136)]
22 | 36.7 | -1.7 | – | – | – | COc1cccc(C[S+]([O-])c2cccc(Nc3nc(N)c(C(=O)c4c(Cl)cccc4Cl)s3)c2)c1 (stereo not drawn) [DD(137)]
34 | 63.8 | 2.9 | – | – | – | Nc1nc(Nc2cccc([S+]([O-])CC3CCCO3)c2)sc1C(=O)c1c(Cl)cccc1Cl (stereo not drawn) [DD(138)]
53 | 77.6 | 17 | – | – | – | CN1CCCC1CC[S+]([O-])c1cccc(Nc2nc(N)c(C(=O)c3c(Cl)cccc3Cl)s2)c1 (stereo not drawn) [DD(139)]
71 | 64.5 | 36 | – | – | – | NC(=O)C[S+]([O-])c1cccc(Nc2nc(N)c(C(=O)c3c(Cl)cccc3Cl)s2)c1 (stereo not drawn) [DD(141)]
12 | 27.7 | -66 | – | – | – | CC(C)=CC[S+]([O-])c1cccc(Nc2nc(N)c(C(=O)c3c(Cl)cccc3Cl)s2)c1 (stereo not drawn) [DD(144)]
21 | 10.4 | 5.6 | – | – | – | CC(C)CCC[S+]([O-])c1cccc(Nc2nc(N)c(C(=O)c3c(Cl)cccc3Cl)s2)c1 (stereo not drawn) [DD(150)]
9.2 | 34.3 | 16 | – | – | – | CC(C)CCOC(=O)C[S+]([O-])c1cccc(Nc2nc(N)c(C(=O)c3c(Cl)cccc3Cl)s2)c1 (stereo not drawn) [DD(151)]
28 | 57.3 | 21 | – | – | – | CN(C)CC[S+]([O-])c1cccc(Nc2nc(N)c(C(=O)c3c(Cl)cccc3Cl)s2)c1 (stereo not drawn) [DD(152)]
60 | 73.5 | 31 | – | – | – | Nc1nc(Nc2cccc([S+]([O-])CC(O)CO)c2)sc1C(=O)c1c(Cl)cccc1Cl (stereo not drawn) [DD(154)]
